From patent US8987267B2, “2-substituted-8-alkyl-7-OXO-7,8-dihydropyrido[2,3-D]pyrimidine-6-carbonitriles and uses thereof in treating proliferative disorders” (Temple University—of the Commonwealth System of Higher …, priority 2010, dated 2015)

What was measured:
FLT4NEGFR3 = FLT4NEGFR3 (Homo sapiens, UniProt P35916); assay: Kinase inhibition panel; assay type: biochemical; conditions: 10 μM ATP
NLK = NLK (Homo sapiens, UniProt Q9UBE8); assay: Kinase inhibition panel; assay type: biochemical; conditions: 10 μM ATP
ARK5 = ARK5 (Homo sapiens, UniProt O60285); assay: Kinase inhibition panel; assay type: biochemical; conditions: 10 μM ATP
SNU-449 = assay: Cytotoxicity assay, viable cell count; assay type: cell-based; conditions: Homo sapiens; SNU-449, Liver; 96 h continuous treatment, trypan blue
Protocol: (§1) Cells (1×10^5) were plated into 6-well dishes and 24 h later 8-cyclopentyl-2-((4-(4-methylpiperazin-1-yl)phenyl)amino)-7-oxo-7,8-dihydropyrido[2,3-d]pyrimidine-6-carbonitrile (12) was added at five different concentrations over a 2 log dilution (1-100 μM). The total number of viable cells was determined after 96 h of continuous treatment by staining with trypan blue and counting the number of non-staining cells (viable) remaining in each well using a hemacytometer. The percentage of viable cells remaining was calculated as follows: # viable cells (compound treated)/# viable cells (DMSO treated)*100.

RAJI = assay: Cytotoxicity assay, viable cell count; assay type: cell-based; conditions: Homo sapiens, B-Cell Lymphoma, 96 h continuous treatment, trypan blue
Protocol: as §1

K562 = assay: Cytotoxicity assay, viable cell count; assay type: cell-based; conditions: Homo sapiens; K562, CML; 96 h continuous treatment, trypan blue
Protocol: as §1

N417 = assay: Cytotoxicity assay, viable cell count; assay type: cell-based; conditions: N417, SCLC; 96 h continuous treatment, trypan blue
Protocol: as §1

COLO-205 = assay: Cytotoxicity assay, viable cell count; assay type: cell-based; conditions: Homo sapiens; COLO-205, Colon; 96 h continuous treatment, trypan blue
Protocol: as §1

GRANTA-519 = assay: Cytotoxicity assay, viable cell count; assay type: cell-based; conditions: Homo sapiens; GRANTA-519, MCL; 96 h continuous treatment, trypan blue
Protocol: as §1

MCF-7 = assay: Cytotoxicity assay, viable cell count; assay type: cell-based; conditions: Homo sapiens, MCF7; MCF-7, ER + Breast; 96 h continuous treatment, trypan blue
Protocol: as §1

BT474 = assay: Cytotoxicity assay, viable cell count; assay type: cell-based; conditions: Homo sapiens, BT-474; BT474, ErbB2 + Breast; 96 h continuous treatment, trypan blue
Protocol: as §1

HCT-15 = assay: Cytotoxicity assay, viable cell count; assay type: cell-based; conditions: Homo sapiens; HCT-15, Colon (MDR elevated); 96 h continuous treatment, trypan blue
Protocol: as §1

U87 = assay: Cytotoxicity assay, viable cell count; assay type: cell-based; conditions: Homo sapiens, U-87 MG; U87, Glioblastoma; 96 h continuous treatment, trypan blue
Protocol: as §1

SNU-398 = assay: Cytotoxicity assay, viable cell count; assay type: cell-based; conditions: Homo sapiens; SNU-398, Liver; 96 h continuous treatment, trypan blue
Protocol: as §1

Z138C = assay: Cytotoxicity assay, viable cell count; assay type: cell-based; conditions: MCL, 96 h continuous treatment, trypan blue
Protocol: as §1

SNU-5 = assay: Cytotoxicity assay, viable cell count; assay type: cell-based; conditions: Homo sapiens; SNU-5, Gastric; 96 h continuous treatment, trypan blue
Protocol: as §1

SNU-475 = assay: Cytotoxicity assay, viable cell count; assay type: cell-based; conditions: Homo sapiens; SNU-475, Hepatocellular carcinoma; 96 h continuous treatment, trypan blue
Protocol: as §1

BT20 = assay: Cytotoxicity assay, viable cell count; assay type: cell-based; conditions: Homo sapiens, BT-20; BT20, Breast; 96 h continuous treatment, trypan blue
Protocol: as §1

Sequence of ARK5 (O60285 whole entry, species assumed): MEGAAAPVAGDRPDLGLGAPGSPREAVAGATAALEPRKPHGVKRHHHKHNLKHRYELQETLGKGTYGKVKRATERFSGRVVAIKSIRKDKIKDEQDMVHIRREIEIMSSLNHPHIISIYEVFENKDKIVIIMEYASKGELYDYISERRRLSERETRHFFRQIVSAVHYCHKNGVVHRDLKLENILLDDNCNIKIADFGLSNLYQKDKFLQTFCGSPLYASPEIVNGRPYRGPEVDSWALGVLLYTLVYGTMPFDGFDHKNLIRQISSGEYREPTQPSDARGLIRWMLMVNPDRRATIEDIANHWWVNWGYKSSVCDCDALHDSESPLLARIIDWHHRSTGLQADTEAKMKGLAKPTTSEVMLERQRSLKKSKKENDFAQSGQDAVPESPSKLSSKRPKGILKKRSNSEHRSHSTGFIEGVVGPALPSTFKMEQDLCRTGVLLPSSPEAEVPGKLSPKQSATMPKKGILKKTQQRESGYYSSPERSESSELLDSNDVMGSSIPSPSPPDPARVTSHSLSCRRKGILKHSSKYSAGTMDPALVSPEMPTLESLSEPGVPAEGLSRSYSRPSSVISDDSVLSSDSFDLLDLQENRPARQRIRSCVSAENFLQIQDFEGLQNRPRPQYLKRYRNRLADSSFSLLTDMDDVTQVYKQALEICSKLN
Sequence of FLT4NEGFR3 (P35916 25-1363): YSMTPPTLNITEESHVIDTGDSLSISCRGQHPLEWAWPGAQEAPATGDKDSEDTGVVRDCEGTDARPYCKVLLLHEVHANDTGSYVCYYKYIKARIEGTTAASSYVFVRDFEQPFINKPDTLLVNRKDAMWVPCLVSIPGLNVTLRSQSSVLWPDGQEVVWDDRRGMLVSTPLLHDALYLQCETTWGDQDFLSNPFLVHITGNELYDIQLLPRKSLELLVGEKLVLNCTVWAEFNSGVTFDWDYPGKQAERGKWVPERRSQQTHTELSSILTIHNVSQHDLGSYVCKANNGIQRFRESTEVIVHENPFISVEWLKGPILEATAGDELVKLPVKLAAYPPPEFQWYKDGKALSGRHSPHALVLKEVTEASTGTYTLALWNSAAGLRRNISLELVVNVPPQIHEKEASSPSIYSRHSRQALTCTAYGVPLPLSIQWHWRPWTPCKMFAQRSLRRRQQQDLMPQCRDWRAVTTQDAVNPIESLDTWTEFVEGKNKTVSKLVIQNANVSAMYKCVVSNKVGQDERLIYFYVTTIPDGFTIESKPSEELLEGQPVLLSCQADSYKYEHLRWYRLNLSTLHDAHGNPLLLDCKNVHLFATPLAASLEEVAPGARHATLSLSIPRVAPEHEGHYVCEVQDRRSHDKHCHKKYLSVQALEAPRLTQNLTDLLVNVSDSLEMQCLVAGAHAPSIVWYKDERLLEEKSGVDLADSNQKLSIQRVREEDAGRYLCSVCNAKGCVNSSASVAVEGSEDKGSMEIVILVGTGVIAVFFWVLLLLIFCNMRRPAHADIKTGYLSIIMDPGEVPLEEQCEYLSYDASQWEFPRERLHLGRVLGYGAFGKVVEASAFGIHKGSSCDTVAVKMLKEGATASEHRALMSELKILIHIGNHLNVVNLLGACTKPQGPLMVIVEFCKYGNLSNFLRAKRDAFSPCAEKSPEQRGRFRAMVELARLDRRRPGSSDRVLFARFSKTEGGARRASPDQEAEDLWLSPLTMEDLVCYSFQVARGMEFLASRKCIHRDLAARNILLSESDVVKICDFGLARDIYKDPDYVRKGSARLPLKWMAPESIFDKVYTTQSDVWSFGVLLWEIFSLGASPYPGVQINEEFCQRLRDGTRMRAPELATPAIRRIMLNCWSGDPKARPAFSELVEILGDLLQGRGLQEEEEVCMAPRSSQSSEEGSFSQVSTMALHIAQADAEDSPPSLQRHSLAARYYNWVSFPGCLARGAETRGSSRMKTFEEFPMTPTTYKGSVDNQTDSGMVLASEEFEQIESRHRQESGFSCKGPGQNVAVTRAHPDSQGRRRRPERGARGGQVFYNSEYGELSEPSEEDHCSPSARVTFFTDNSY
Sequence of NLK (Q9UBE8 whole entry): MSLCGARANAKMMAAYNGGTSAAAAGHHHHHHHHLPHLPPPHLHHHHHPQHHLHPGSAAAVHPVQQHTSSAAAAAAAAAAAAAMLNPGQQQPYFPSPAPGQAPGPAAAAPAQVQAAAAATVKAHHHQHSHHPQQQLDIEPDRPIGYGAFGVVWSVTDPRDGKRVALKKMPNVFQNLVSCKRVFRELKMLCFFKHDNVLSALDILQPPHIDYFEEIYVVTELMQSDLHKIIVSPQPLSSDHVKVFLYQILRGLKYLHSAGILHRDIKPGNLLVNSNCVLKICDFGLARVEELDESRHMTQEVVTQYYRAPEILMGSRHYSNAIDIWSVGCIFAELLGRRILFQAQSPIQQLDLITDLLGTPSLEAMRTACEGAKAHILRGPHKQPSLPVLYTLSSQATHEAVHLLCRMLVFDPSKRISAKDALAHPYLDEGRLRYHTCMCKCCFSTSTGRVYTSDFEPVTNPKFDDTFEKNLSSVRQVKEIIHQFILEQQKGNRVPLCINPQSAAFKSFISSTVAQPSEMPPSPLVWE

IC50 (FLT4NEGFR3): 63.5 nM | IC50 (NLK): 45.3 nM | IC50 (ARK5): 7.85 nM
SMILES: CN1CCN(c2ccc(Nc3ncc4cc(C#N)c(=O)n(C5CCCC5)c4n3)cc2)CC1 [Compound 12, 8-cyclopentyl-2-((4-(4-methylpiperazin-1-yl)phenyl)amino)-7-oxo-7,8-dihydropyrido[2,3-d]pyrimidine-6-carbonitrile]
GI50 (SNU-449): 750 nM | GI50 (RAJI): 250 nM | GI50 (K562): 500 nM | GI50 (N417): 250 nM | GI50 (COLO-205): 200 nM | GI50 (GRANTA-519): 75 nM | GI50 (MCF-7): 150 nM | GI50 (BT474): 250 nM | GI50 (HCT-15): 400 nM | GI50 (U87): 100 nM | GI50 (SNU-398): 500 nM | GI50 (Z138C): 25 nM | GI50 (SNU-5): 200 nM | GI50 (SNU-475): 300 nM | GI50 (BT20): 100 nM
